Assay results: patent publication EP2119770B1, “Production of alpha-oxyfunctionalized carbonyl compounds” (priority 2008, dated 2009)

Key:
Type in all cases: biochemical
[1] = target: T1, Gox1615 (Gluconobacter oxydans, UniProt Q5FQJ0); test: Enzyme activity assay (rate of NAD(P)H decrease at 340 nm), Gox1615; details: Tab. 5, Gox1615; cofactor NADPH; 10 mM substrate, pH 7.0, 30 °C
T1 sequence (Q5FQJ0 1-332): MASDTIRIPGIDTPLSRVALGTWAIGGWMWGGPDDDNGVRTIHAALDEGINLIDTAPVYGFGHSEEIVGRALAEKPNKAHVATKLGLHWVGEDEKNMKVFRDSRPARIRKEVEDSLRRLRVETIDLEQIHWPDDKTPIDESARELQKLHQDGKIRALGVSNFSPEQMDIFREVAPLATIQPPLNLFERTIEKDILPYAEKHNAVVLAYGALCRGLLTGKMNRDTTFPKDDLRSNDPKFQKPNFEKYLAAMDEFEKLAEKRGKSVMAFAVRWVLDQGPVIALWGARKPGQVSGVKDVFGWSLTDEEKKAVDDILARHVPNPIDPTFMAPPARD
Protocol: (§1) Measurment of enzyme activity: NADPH-dependent alpha-ketocarbonyl reductases were assayed by a routine method used for NAD(P)-linked enzymes by recording the rate of decrease of NADPH at 340 nm (ε = 6.22 mM^-1 x cm^-1)) with substrates at 30 °C. The reaction mixture (1 ml) for reduction of alpha-ketocarbonyl substrates contained 10 mM substrate, 40 mM potassium phosphate buffer pH 7.0, 0.025 mM NAD(P)H , and the enzyme. Reactions were induced by addition of enzyme or substrate. One unit of enzyme activity was defined as the amount of enzyme catalyzing the conversion of 1 µmol of pyridine nucleotide per min at 30 °C.
(§2) NADPH-dependent α-ketocarbonyl reductases were assayed by a routine method used for NAD(P)-linked enzymes by recording the rate of decrease of NADPH at 340 nm (ε = 6.22 mM^-1.cm^-1) with substrates at 30 °C. The reaction mixture (1 ml) for reduction of alpha-ketocarbonyl substrates contained 10 mM substrate, 40 mM potassium phosphate buffer pH 7.0, 0.025 mM NADPH , and the enzyme. Reactions were induced by addition of enzyme or substrate. One unit of enzyme activity was defined as the amount of enzyme catalyzing the conversion of 1 µmol of pyridine nucleotide per min at 30 °C.
(§3) For each enzyme (Gox0313, Gox0502, Gox0644, Gox0646, Gox1615, Gox2107, and Gox2684 respectively), fresh enzyme preparations were used to validate the substrate spectrum and the kinetic activity. […] Purified NAD(P)-dependent oxidoreductases were assayed at 30 °C by a routine method used for NAD(P)-linked enzymes by recording the rate of decrease of NAD(P)H at 340 nm (ε = […]) with substrates capable of reduction reactions. The standard reaction mixture (1 ml) for the reduction reactions of substrates contained 10 mM substrate, 40 mM potassium phosphate buffer (K-phosphate buffer) pH 7.0, 0.05 mM NAD(P)H, and the enzyme unless otherwise noted. Reactions were induced by addition of enzyme or substrate. One unit of enzyme activity was defined as the amount of enzyme catalyzing the conversion of 1 µmol of pyridine nucleotide per min at 30 °C. Measurement of the protein content was performed by the method of Bradford in Anal. Biochem. 72:248-254 (1976). Table 3: Summary of enzymatic activities with α-diketones, α-ketoaldehydes and /or α-ketoesters

[2] = target: T2, Gox0313 (Gluconobacter oxydans, UniProt Q5FU50); test: Enzyme activity assay (rate of NAD(P)H decrease at 340 nm), Gox0313; details: Tab. 6, Gox0313; substrate reduction, cofactor NADH; 10 mM substrate, pH 7.0, 30 °C
T2 sequence (Q5FU50 1-343): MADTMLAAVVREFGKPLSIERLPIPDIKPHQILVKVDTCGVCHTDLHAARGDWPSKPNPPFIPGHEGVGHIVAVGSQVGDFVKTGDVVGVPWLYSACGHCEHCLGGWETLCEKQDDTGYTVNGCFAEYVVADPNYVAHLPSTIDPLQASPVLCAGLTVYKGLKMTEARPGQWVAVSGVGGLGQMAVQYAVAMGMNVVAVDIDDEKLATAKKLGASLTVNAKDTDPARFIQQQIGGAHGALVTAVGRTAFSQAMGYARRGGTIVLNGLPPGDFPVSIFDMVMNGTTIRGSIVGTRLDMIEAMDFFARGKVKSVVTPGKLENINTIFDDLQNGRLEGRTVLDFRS
Protocol: as §1, §2, §3

[3] = target: Gox2107 (Gluconobacter oxydans, UniProt Q5FP53); test: Enzyme activity assay (rate of NAD(P)H decrease at 340 nm), Gox2107; details: for Specific Activity: Tab. 7, Gox2107, cofactor NADPH, 10 mM substrate, pH 7.0, 30 °C
Protocol: as §1, §2, §3

[4] = target: T3, Gox0502 (Gluconobacter oxydans, UniProt Q5FTL6); test: Enzyme activity assay (rate of NAD(P)H decrease at 340 nm), Gox0502; parameters: Strep-tag II (N); made in house; host or cells: E. coli BL21 or E. coli DH5α (pASK-IBA5); details: Tab. 7, Gox0502; cofactor NADPH; 10 mM substrate, pH 7.0, 30 °C
T3 sequence (Q5FTL6 1-361): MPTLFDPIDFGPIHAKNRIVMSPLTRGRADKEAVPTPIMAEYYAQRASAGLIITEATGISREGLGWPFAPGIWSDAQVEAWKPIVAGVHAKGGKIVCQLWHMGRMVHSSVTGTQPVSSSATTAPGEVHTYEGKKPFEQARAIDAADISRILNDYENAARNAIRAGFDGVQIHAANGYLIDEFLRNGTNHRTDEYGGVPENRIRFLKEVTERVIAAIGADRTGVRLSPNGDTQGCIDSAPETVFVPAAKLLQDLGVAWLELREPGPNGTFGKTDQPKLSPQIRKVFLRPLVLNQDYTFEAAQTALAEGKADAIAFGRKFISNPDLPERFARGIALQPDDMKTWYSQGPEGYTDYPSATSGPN
Protocol: as §1, §2, §3

[5] = target: T4, Gox2684 (Gluconobacter oxydans, UniProt Q5HXK5); test: Enzyme activity assay (rate of NAD(P)H decrease at 340 nm), Gox2684; details: Tab. 8, GOX2684; cofactor NADPH; 10 mM substrate, pH 7.0, 30 °C
T4 sequence (Q5HXK5 1-357): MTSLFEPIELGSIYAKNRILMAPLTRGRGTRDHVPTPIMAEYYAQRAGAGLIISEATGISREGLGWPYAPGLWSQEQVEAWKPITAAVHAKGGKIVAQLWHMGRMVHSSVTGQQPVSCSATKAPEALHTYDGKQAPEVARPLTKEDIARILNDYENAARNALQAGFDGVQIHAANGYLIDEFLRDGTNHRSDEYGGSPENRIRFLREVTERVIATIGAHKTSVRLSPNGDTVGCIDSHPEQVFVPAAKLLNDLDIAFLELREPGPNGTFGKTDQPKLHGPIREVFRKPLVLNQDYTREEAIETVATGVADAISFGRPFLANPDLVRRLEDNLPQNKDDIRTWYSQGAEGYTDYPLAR
Protocol: as §1, §2, §3

[6] = target: Gox0644 (Gluconobacter oxydans, UniProt Q5FT75); test: Enzyme activity assay (rate of NAD(P)H decrease at 340 nm), Gox0644; details: for Specific Activity: Tab. 4, Gox0644, cofactor NADPH, 10 mM substrate, pH 7.0, 30 °C; for reduction by Gox0644 (result in words): NADPH
Protocol: (§4) Reactions were induced by addition of enzyme or substrate. One unit of enzyme activity was defined as the amount of enzyme catalyzing the conversion of 1 µmol of pyridine nucleotide per min at 30 °C.
as §4
For each enzyme (Gox0313, Gox0502, Gox0644, Gox0646, Gox1615, Gox2107, and Gox2684 respectively), fresh enzyme preparations were used to validate the substrate spectrum and the kinetic activity. […] Reactions were induced by addition of enzyme or substrate. One unit of enzyme activity was defined as the amount of enzyme catalyzing the conversion of 1 µmol of pyridine nucleotide per min at 30 °C. […] Table 3: Summary of enzymatic activities with α-diketones, α-ketoaldehydes and /or α-ketoesters

Compound | Specific Activity [1] | Specific Activity [2] | also measured
CC(=O)C=CC(C)C [5-methyl-3-hexen-2-one] | 0.3 U/mg |  | 
CCCCCCCCCCC=O [undecylaldehyde] | 7.5 U/mg | 8.5 U/mg | 
CCCCC=O [valeraldehyde] | 15.1 U/mg | 8.9 U/mg | 
CCCCCCC=O [heptanal] | 15.5 U/mg | 8.6 U/mg | 
C=CC(=O)CC [1-pentene-3-one] |  |  | Specific Activity [3]: 14.0 U/mg; Specific Activity [4]: 6.1 U/mg
O=C1C=C(O)C(=O)c2ccccc21 [2-hydroxy-1,4-naphthoquinone] |  |  | Specific Activities [5]: 0.7 U/mg; Specific Activity [3]: 16.04 U/mg; Specific Activity [4]: 0.75 U/mg
Cc1ccccc1C=O [o-toluylaldehyde] | 0.8 U/mg |  | 
glucose |  | 4.7 U/mg | 
O=CC(=O)O [glyoxalate] |  |  | Specific Activity [6]: 1.2 U/mg
O=C(C(=O)c1ccccc1)c1ccccc1 [benzil] |  | 0.1 U/mg | Specific Activity [6]: 14.0 U/mg
CCCCCC=O [hexanal] | 10.3 U/mg | 6.0 U/mg | 
Cc1cccc(C=O)c1 [m-toluylaldehyde] | 1.5 U/mg |  | 
NC(=O)C1=CN([C@@H]2O[C@H](COP(=O)(O)OP(=O)(O)OC[C@H]3O[C@@H](n4cnc5c(N)ncnc54)[C@H](O)[C@@H]3O)[C@@H](O)[C@H]2O)C=CC1 [NADH] |  |  | decrease in activity with NADH ([3]; Gox2107, NADH compared with the preferred NADPH (data not shown)): 7.5 fold
O=C1C=CCCC1 [2-cyclohexene-1-one] |  |  | Specific Activity [3]: 3.3 U/mg; Specific Activity [4]: 9.8 U/mg
N#CC1=C(C#N)C(=O)C(Cl)=C(Cl)C1=O [DDQ] |  |  | Specific Activity [3]: 26.5 U/mg; Specific Activity [4]: < 0.1 U/mg
CCCCCCCCC=O [Nonal] | 9.3 U/mg | 4.4 U/mg | 
C=C(C)[C@H]1CC=C(C)C(=O)C1 [(+)-Carvone] |  |  | Specific Activity [3]: < 0.1 U/mg; Specific Activity [4]: 8.0 U/mg
CCC=O [propionaldehyde] | 8.4 U/mg | 15.0 U/mg | 
CC=CC(C)=O [3-penten-2-one] | 0.5 U/mg | 1.5 U/mg | Specific Activities [5]: 1.9 U/mg; Specific Activity [3]: 1.9 U/mg; Specific Activity [4]: 3.6 U/mg
CC(C)CC=O [isovaleraldehyde] | 12 U/mg |  | 

Compound | Specific Activity [1] | Specific Activity [2] | also measured
CCCCCCCC=O [octanal] | 5.3 U/mg | 1.5 U/mg | 
mannose |  | 9.7 U/mg | 
O=CCc1ccccc1 [phenylacetaldehyde] | 6.5 U/mg |  | 
CCCC(C)C=O (centres unmarked) [2-methylvaleraldehyde] | 13.4 U/mg |  | 
O=CCCc1ccccc1 [hydrocinnamaldehyde] |  | 32.1 U/mg | Specific Activities [5]: 1.9 U/mg
Cc1ccc(C=O)cc1 [p-toluylaldehyde] | 2.3 U/mg | 3.3 U/mg | 
CCCC=O [butyraldehyde] | 14 U/mg | 8.5 U/mg | 
O=CCCCC=O [glutaraldehyde] | 13.5 U/mg |  | 
O=CC=Cc1ccccc1 [cinnamaldehyde] |  | 7.0 U/mg | Specific Activities [5]: 0.4 U/mg
O=CC(O)CO (racemic) [DL-glyceraldehyde] | 19 U/mg | 1.2 U/mg | 
CC(=O)CC(C)=O [acetylacetone] |  |  | reduction by Gox0644 (result in words) [6]: not reduced
CC1=CC(=O)c2ccccc2C1=O [2-methyl-1,4-naphthoquinone] |  |  | Specific Activities [5]: 6.8 U/mg; Specific Activity [3]: 124.1 U/mg; Specific Activity [4]: 10 U/mg
CC=O [acetaldehyde] |  | 61.0 U/mg | 
CCCCCCCCCC=O [decanal] | 10.5 U/mg | 18.8 U/mg | 
CC(=O)C(C)O (centres unmarked) [acetoin] |  | 10.5 U/mg | reduction by Gox0644 (result in words) [6]: not reduced
CCCCCCCCCCCC=O [dodecanal] | 15.6 U/mg | 2.4 U/mg | 
O=CC=O [glyoxal] | 5 U/mg |  | Specific Activity [6]: 1.1 U/mg
CC(C)=O [acetone] |  |  | reduction by Gox0644 (result in words) [6]: not reduced
O=CCO [glycolaldehyde] | 4.1 U/mg | 37.5 U/mg | 
O=Cc1ccccc1 [benzaldehyde] | 12.2 U/mg | 9.4 U/mg | 
